# Values joined by “and” are separate entries in the source; they are usually repeats but may differ in a detail not shown here. Equal values may be shown once.
# Legend:
# Format in all cases: functional
# UACC-257 = assay: Growth inhibition of human UACC-257 cells assessed as growth percentage at 10 uM incubated for 48 hrs by sulforhodamine B assay relative to control; details: read-out: Activity
# SK-MEL-28 = assay: Growth inhibition of human SK-MEL-28 cells assessed as growth percentage at 10 uM incubated for 48 hrs by sulforhodamine B assay relative to control; details: read-out: Activity
# SF-268 = assay: Growth inhibition of human SF-268 cells assessed as growth percentage at 10 uM incubated for 48 hrs by sulforhodamine B assay relative to control; details: read-out: Activity
# UO-31 = assay: Growth inhibition of human UO-31 cells incubated for 48 hrs by sulforhodamine B assay
# SN12C = assay: Growth inhibition of human SN12C cells incubated for 48 hrs by sulforhodamine B assay
# OVCAR-4 [1] = assay: Growth inhibition of human OVCAR-4 cells incubated for 48 hrs by sulforhodamine B assay; details: for CC50: read-out: LC50 (the source's name)
# UACC-62 [2] = assay: Growth inhibition of human UACC-62 cells incubated for 48 hrs by sulforhodamine B assay
# MDA-MB-435 = assay: Growth inhibition of human MDA-MB-435 cells incubated for 48 hrs by sulforhodamine B assay; details: for TGI: MDA-MB-435; for CC50: MDA-MB-435, read-out: LC50 (the source's name)
# HCC 2998 = assay: Growth inhibition of human HCC 2998 cells incubated for 48 hrs by sulforhodamine B assay
# MDA-MB-468 = assay: Growth inhibition of human MDA-MB-468 cells assessed as growth percentage at 100 uM incubated for 48 hrs by sulforhodamine B assay relative to control; details: read-out: Activity
# DU-145 = assay: Growth inhibition of human DU-145 cells assessed as growth percentage at 100 uM incubated for 48 hrs by sulforhodamine B assay relative to control; details: read-out: Activity
# CAKI-1 = assay: Growth inhibition of human CAKI-1 cells assessed as growth percentage at 100 uM incubated for 48 hrs by sulforhodamine B assay relative to control; details: read-out: Activity
# 786-0 = assay: Growth inhibition of human 786-0 cells assessed as growth percentage at 100 uM incubated for 48 hrs by sulforhodamine B assay relative to control; details: read-out: Activity
# OVCAR-8 [3] = assay: Growth inhibition of human OVCAR-8 cells assessed as growth percentage at 100 uM incubated for 48 hrs by sulforhodamine B assay relative to control; details: read-out: Activity
# IGROV-1 [4] = assay: Growth inhibition of human IGROV-1 assessed as growth percent at 100 uM incubated for 48 hrs by sulforhodamine B assay relative to control; details: read-out: Activity
# SNB-75 = assay: Growth inhibition of human SNB-75 cells assessed as growth percentage at 100 uM incubated for 48 hrs by sulforhodamine B assay relative to control; details: read-out: Activity
# NCI-H226 = assay: Growth inhibition of human NCI-H226 cells assessed as growth percentage at 100 uM incubated for 48 hrs by sulforhodamine B assay relative to control; details: read-out: Activity
# A549 [5] = assay: Growth inhibition of human A549/ATCC cells assessed as growth percentage at 100 uM incubated for 48 hrs by sulforhodamine B assay relative to control; details: read-out: Activity
# BT-549 = assay: Growth inhibition of human BT-549 cells assessed as growth percentage at 1 uM incubated for 48 hrs by sulforhodamine B assay relative to control; details: read-out: Activity
# OVCAR-8 [6] = assay: Growth inhibition of human OVCAR-8 cells assessed as growth percentage at 1 uM incubated for 48 hrs by sulforhodamine B assay relative to control; details: read-out: Activity
# UACC-62 [7] = assay: Growth inhibition of human UACC-62 cells assessed as growth percentage at 1 uM incubated for 48 hrs by sulforhodamine B assay relative to control; details: read-out: Activity
# MCF7 = assay: Growth inhibition of human MCF7 cells assessed as growth percentage at 0.1 uM incubated for 48 hrs by sulforhodamine B assay relative to control; details: read-out: Activity
# OVCAR-4 [8] = assay: Growth inhibition of human OVCAR-4 cells assessed as growth percentage at 0.1 uM incubated for 48 hrs by sulforhodamine B assay relative to control; details: read-out: Activity
# IGROV-1 [9] = assay: Growth inhibition of human IGROV-1 assessed as growth percent at 0.1 uM incubated for 48 hrs by sulforhodamine B assay relative to control; details: read-out: Activity
# Malme-3M = assay: Growth inhibition of human Malme-3M cells assessed as growth percentage at 0.1 uM incubated for 48 hrs by sulforhodamine B assay relative to control; details: read-out: Activity
# LOX IMVI = assay: Growth inhibition of human LOX IMVI cells assessed as growth percentage at 0.1 uM incubated for 48 hrs by sulforhodamine B assay relative to control; details: read-out: Activity
# U-251 [10] = assay: Growth inhibition of human U-251 cells assessed as growth percentage at 0.1 uM incubated for 48 hrs by sulforhodamine B assay relative to control; details: read-out: Activity
# HT-29 = assay: Growth inhibition of human HT-29 cells assessed as growth percentage at 0.1 uM incubated for 48 hrs by sulforhodamine B assay relative to control; details: read-out: Activity
# COLO 205 = assay: Growth inhibition of human COLO 205 cells assessed as growth percentage at 0.1 uM incubated for 48 hrs by sulforhodamine B assay relative to control; details: read-out: Activity
# HOP-92 = assay: Growth inhibition of human HOP-92 cells assessed as growth percentage at 0.1 uM incubated for 48 hrs by sulforhodamine B assay relative to control; details: read-out: Activity
# PC-3 = assay: Growth inhibition of human PC-3 cells assessed as growth percentage at 0.01 uM incubated for 48 hrs by sulforhodamine B assay relative to control; details: read-out: Activity
# NCI/ADR-RES = assay: Growth inhibition of human NCI/ADR-RES cells assessed as growth percentage at 0.01 uM incubated for 48 hrs by sulforhodamine B assay relative to control; details: read-out: Activity
# OVCAR-3 = assay: Growth inhibition of human OVCAR-3 cells assessed as growth percentage at 0.01 uM incubated for 48 hrs by sulforhodamine B assay relative to control; details: read-out: Activity
# SK-MEL-5 = assay: Growth inhibition of human SK-MEL-5 cells assessed as growth percentage at 0.01 uM incubated for 48 hrs by sulforhodamine B assay relative to control; details: read-out: Activity
# M14 = assay: Growth inhibition of human M14 cells assessed as growth percentage at 0.01 uM incubated for 48 hrs by sulforhodamine B assay relative to control; details: read-out: Activity
# U-251 [11] = assay: Growth inhibition of human U-251 cells assessed as growth percentage at 0.01 uM incubated for 48 hrs by sulforhodamine B assay relative to control; details: read-out: Activity
# A549 [12] = assay: Growth inhibition of human A549/ATCC cells assessed as growth percentage at 0.01 uM incubated for 48 hrs by sulforhodamine B assay relative to control; details: read-out: Activity
# K562 = assay: Growth inhibition of human K562 cells assessed as growth percentage at 0.01 uM incubated for 48 hrs by sulforhodamine B assay relative to control; details: read-out: Activity
structure (smiles),measurement,setting,value
CCCCCCCC(=O)Nc1nc2[nH]c(CN3CCN(Cc4cccc(F)c4)CC3)c(CN3CCN(Cc4cccc(F)c4)CC3)c2c(=O)[nH]1,growth at 10 µM,UACC-257,-18.5%
same,growth at 10 µM,SK-MEL-28,-97%
same,growth at 10 µM,SF-268,-92.2%
same,GI50,UO-31; 48 h,3800 nM and 380 nM
same,LC50 (concentration killing 50% of cells),"UO-31; Homo sapiens, UO-31",4.81 µM
same,TGI,"UO-31; Homo sapiens, UO-31, 48 h",1.7 µM
same,GI50,SN12C,1480 nM
same,LC50,SN12C,6.85 µM
same,TGI,SN12C,3.18 µM
same,GI50,OVCAR-4 [1],1210 nM
same,TGI,OVCAR-4 [1],2540 nM
same,CC50,OVCAR-4 [1],5.31 µM
same,GI50,UACC-62 [2]; 48 h,1680 nM
same,TGI,UACC-62 [2]; 48 h,3.15 µM
same,CC50,"UACC-62 [2]; 48 h, read-out: LC50 (the source's name)",0.59 µM and 5.9 µM
same,GI50,"UACC-62 [2]; Homo sapiens, UACC-62, 48 h",1800 nM
same,TGI,"UACC-62 [2]; Homo sapiens, UACC-62, 48 h",3.42 µM
same,GI50,MDA-MB-435; 48 h,320 nM
same,TGI,MDA-MB-435; Homo sapiens,1240 nM
same,GI50,"MDA-MB-435; Homo sapiens, MDA-MB-435, 48 h",317 nM
same,CC50,MDA-MB-435; Homo sapiens,3.77 µM
same,GI50,HCC 2998; 48 h,250 nM
same,TGI,HCC 2998; 48 h,570 nM
same,GI50,"HCC 2998; Homo sapiens, HCC 2998, 48 h",248 nM
same,TGI,"HCC 2998; Homo sapiens, HCC 2998, 48 h",573 nM
same,CC50,"HCC 2998; Homo sapiens, HCC 2998, read-out: LC50 (the source's name)",2620 nM
same,growth at 100 µM,MDA-MB-468,-75%
same,growth at 100 µM,DU-145,-83%
same,growth at 100 µM,CAKI-1,-96%
same,growth at 100 µM,786-0,-95%
same,growth at 100 µM,OVCAR-8 [3],-81%
same,growth at 100 µM,IGROV-1 [4],-70%
same,growth at 100 µM,SNB-75,-99%
same,growth at 100 µM,NCI-H226,-94%
same,growth at 100 µM,A549 [5],-88%
same,growth at 1 µM,BT-549,63%
same,growth at 1 µM,OVCAR-8 [6],-66%
same,growth at 1 µM,UACC-62 [7],92%
same,growth at 0.1 µM,MCF7,87%
same,growth at 0.1 µM,OVCAR-4 [8],84%
same,growth at 0.1 µM,IGROV-1 [9],95%
same,growth at 0.1 µM,Malme-3M,96%
same,growth at 0.1 µM,LOX IMVI,94%
same,growth at 0.1 µM,U-251 [10],92%
same,growth at 0.1 µM,HT-29,104%
same,growth at 0.1 µM,COLO 205,92%
same,growth at 0.1 µM,HOP-92,86%
same,growth at 0.01 µM,PC-3,98%
same,growth at 0.01 µM,NCI/ADR-RES,100%
same,growth at 0.01 µM,OVCAR-3,100%
same,growth at 0.01 µM,SK-MEL-5,100%
same,growth at 0.01 µM,M14,100%
same,growth at 0.01 µM,U-251 [11],97%
same,growth at 0.01 µM,A549 [12],98%
same,growth at 0.01 µM,K562,102%
Nc1nc2[nH]c(CN3CCN(c4cc(Cl)cc(Cl)c4)CC3)c(CN3CCN(c4cc(Cl)cc(Cl)c4)CC3)c2c(=O)[nH]1,growth at 10 µM,UACC-257,97.6%
same,growth at 10 µM,SK-MEL-28,90.8%
same,growth at 10 µM,SF-268,81.2%
same,GI50,UO-31; 48 h,1170 nM and 11700 nM
same,TGI,UO-31; 48 h,31.8 µM and 3.18 µM
same,GI50,SN12C,1910 nM
same,TGI,SN12C,3.91 µM
same,GI50,OVCAR-4 [1],1580 nM
same,TGI,OVCAR-4 [1],3150 nM
same,CC50,OVCAR-4 [1],6.25 µM
same,GI50,"UACC-62 [2]; Homo sapiens, UACC-62, 48 h",1800 nM
same,TGI,"UACC-62 [2]; Homo sapiens, UACC-62, 48 h",3.42 µM
same,TGI,MDA-MB-435; Homo sapiens,3040 nM
same,GI50,"MDA-MB-435; Homo sapiens, MDA-MB-435, 48 h",1620 nM
same,CC50,MDA-MB-435; Homo sapiens,5.72 µM
same,GI50,"HCC 2998; Homo sapiens, HCC 2998, 48 h",1700 nM
same,TGI,"HCC 2998; Homo sapiens, HCC 2998, 48 h",3160 nM
same,growth at 100 µM,MDA-MB-468,-44%
same,growth at 100 µM,DU-145,-92%
same,growth at 100 µM,CAKI-1,-97%
same,growth at 100 µM,786-0,-41%
same,growth at 100 µM,OVCAR-8 [3],-44%
same,growth at 100 µM,IGROV-1 [4],-48%
same,growth at 100 µM,SNB-75,-76%
same,growth at 100 µM,NCI-H226,-25%
same,growth at 100 µM,A549 [5],-45%
same,growth at 1 µM,BT-549,85%
same,growth at 1 µM,OVCAR-8 [6],96%
same,growth at 1 µM,UACC-62 [7],96%
same,growth at 0.1 µM,MCF7,90%
same,growth at 0.1 µM,OVCAR-4 [8],95%
same,growth at 0.1 µM,IGROV-1 [9],105%
same,growth at 0.1 µM,Malme-3M,90%
same,growth at 0.1 µM,LOX IMVI,99%
same,growth at 0.1 µM,U-251 [10],97%
same,growth at 0.1 µM,HT-29,110%
same,growth at 0.1 µM,COLO 205,101%
same,growth at 0.1 µM,HOP-92,73%
same,growth at 0.01 µM,PC-3,97%
same,growth at 0.01 µM,NCI/ADR-RES,101%
same,growth at 0.01 µM,OVCAR-3,105%
same,growth at 0.01 µM,SK-MEL-5,96%
same,growth at 0.01 µM,M14,93%
same,growth at 0.01 µM,U-251 [11],99%
same,growth at 0.01 µM,A549 [12],97%
same,growth at 0.01 µM,K562,108%

# Source: ChEMBL document CHEMBL4673219, “Novel 5,6-disubstituted pyrrolo[2,3-d]pyrimidine derivatives as broad spectrum antiproliferative agents: Synthesis, cell based assays, kinase profile and molecular docking study” (Bioorg Med Chem, 2018)
